Where a name gives a salt, the structure may show the parent alone.
Experiments:
[1] = molecular target: T1, Recombinant human IKKβ (residues 1-737) (Homo sapiens, UniProt O14920); assay: IKK2 assay (TR-FRET); assay type: biochemical; settings: ATP 1 μM final, read-out: pIC50 against IKK2 (converted)
T1 construct: Recombinant human IKKβ (residues 1-737); GST (C); made in house
T1 sequence (O14920 1-737): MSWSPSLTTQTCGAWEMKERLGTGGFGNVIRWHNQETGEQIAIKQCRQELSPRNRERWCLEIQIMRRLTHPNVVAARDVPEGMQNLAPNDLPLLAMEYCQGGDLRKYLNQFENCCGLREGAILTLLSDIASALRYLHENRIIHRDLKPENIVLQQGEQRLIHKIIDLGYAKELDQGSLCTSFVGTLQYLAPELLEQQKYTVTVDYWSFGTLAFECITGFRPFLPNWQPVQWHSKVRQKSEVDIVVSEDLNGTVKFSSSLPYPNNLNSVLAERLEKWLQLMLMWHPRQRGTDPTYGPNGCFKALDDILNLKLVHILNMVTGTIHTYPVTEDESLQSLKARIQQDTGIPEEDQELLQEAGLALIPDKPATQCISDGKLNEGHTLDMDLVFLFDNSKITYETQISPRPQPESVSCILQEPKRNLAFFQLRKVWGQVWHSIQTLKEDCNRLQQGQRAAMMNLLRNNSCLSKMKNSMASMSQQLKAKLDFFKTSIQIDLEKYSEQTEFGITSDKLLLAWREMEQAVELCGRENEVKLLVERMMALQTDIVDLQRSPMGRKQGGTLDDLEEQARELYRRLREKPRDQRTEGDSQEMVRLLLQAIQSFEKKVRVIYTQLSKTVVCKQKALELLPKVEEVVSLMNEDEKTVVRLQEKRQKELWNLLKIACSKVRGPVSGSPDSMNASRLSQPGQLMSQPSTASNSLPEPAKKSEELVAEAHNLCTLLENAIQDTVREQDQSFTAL
Method in brief: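 Baculovirus-expressed C-terminal GST-tagged IKKβ (0.5-5 nM final) in HEPES pH 7.4, MgCl2, CHAPS, DTT, BSA with 1.7% DMSO; 25 nM GST-IB substrate and 1 μM ATP, 15 min at room temperature. EDTA stop; phospho-Ser32/36 detected by Eu-antibody/APC-anti-GST TR-FRET, 665/620 nm ratio.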

[2] = system: human monocyte stimulated cytokine production (TNF-α); assay: Monocyte assay (LPS-stimulated TNF-α production); assay type: cell-based; settings: 24 h, 200 ng/mL LPS, TNF-α by ELISA
Method in brief: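 Human CD14+ monocytes were purified from blood and plated at 1×10^6 cells/mL in RPMI 1640 with 10% FBS. Compound was added 30 min before stimulation with 200 ng/mL LPS (0.1% DMSO final), followed by 24 hrs at 37 C. Supernatant TNF-α was measured by ELISA, and viability by trypan blue exclusion.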

SMILES	IC50 [1]	IC50 [2]
CCS(=O)(=O)N1CCC(c2c[nH]c3c(C(N)=O)cc(-c4ccnc(NCC(C)(C)C)c4)cc23)CC1 [Example 206, 5-{2-[(2,2-dimethylpropyl)amino]-4-pyridinyl}-3-[1-(ethylsulfonyl)-4-piperidinyl]-1H-indole-7-carboxamide trifluoroacetate]	≤ 10 µM	> 1 µM
CCCNc1cc(-c2cc(C(N)=O)c3[nH]cc(C4CCN(S(=O)(=O)CC)CC4)c3c2)ccn1 [Example 207, 3-[1-(ethylsulfonyl)-4-piperidinyl]-5-[2-(propylamino)-4-pyridinyl]-1H-indole-7-carboxamide trifluoroacetate]	≤ 10 µM	> 1 µM
CC(C)S(=O)(=O)N1CCC(c2c[nH]c3c(C(N)=O)cc(-c4csc(CN(C)C)c4)cc23)CC1 [Example 220, 5-{5-[(dimethylamino)methyl]-3-thienyl}-3-{1-[(1-methylethyl)sulfonyl]-4-piperidinyl}-1H-indole-7-carboxamide trifluoroacetate]	≤ 10 µM	≤ 1.5 µM
CCS(=O)(=O)N1CCC(c2c[nH]c3c(C(N)=O)cc(-c4csc(CCNCC(C)C)c4)cc23)CC1 [Example 222, 3-[1-(ethylsulfonyl)-4-piperidinyl]-5-(5-{2-[(2-methylpropyl)amino]ethyl}-3-thienyl)-1H-indole-7-carboxamide trifluoroacetate]	≤ 10 µM	≤ 1.5 µM
CCS(=O)(=O)N1CCC(c2c[nH]c3c(C(N)=O)cc(-c4csc(CCN(C)C)c4)cc23)CC1 [Example 223, 5-{5-[2-(dimethylamino)ethyl]-3-thienyl}-3-[1-(ethylsulfonyl)-4-piperidinyl]-1H-indole-7-carboxamide trifluoroacetate]	≤ 10 µM	≤ 1.5 µM
CCS(=O)(=O)N1CCC(c2c[nH]c3c(C(N)=O)cc(-c4ccc(N5CCCC5)nc4)cc23)CC1 [Example 224, 3-[1-(ethylsulfonyl)-4-piperidinyl]-5-[6-(1-pyrrolidinyl)-3-pyridinyl]-1H-indole-7-carboxamide trifluoroacetate]	≤ 10 µM	> 1 µM
CCCNc1ccc(-c2cc(C(N)=O)c3[nH]cc(C4CCN(S(=O)(=O)CC)CC4)c3c2)cn1 [Example 227, 3-[1-(ethylsulfonyl)-4-piperidinyl]-5-[6-(propylamino)-3-pyridinyl]-1H-indole-7-carboxamide trifluoroacetate]	≤ 10 µM	≤ 1.5 µM
CCS(=O)(=O)N1CCC(c2c[nH]c3c(C(N)=O)cc(-c4csc(CNC)c4)cc23)CC1 [Example 230, 3-[1-(ethylsulfonyl)-4-piperidinyl]-5-{5-[(methylamino)methyl]-3-thienyl}-1H-indole-7-carboxamide trifluoroacetate]	≤ 10 µM	≤ 1.5 µM
CCS(=O)(=O)N1CCC(c2c[nH]c3c(C(N)=O)cc(-c4csc(CNC(C)C)c4)cc23)CC1 [Example 231, 3-[1-(ethylsulfonyl)-4-piperidinyl]-5-(5-{[(1-methylethyl)amino]methyl}-3-thienyl)-1H-indole-7-carboxamide trifluoroacetate]	≤ 10 µM	≤ 1.5 µM
CCS(=O)(=O)N1CCC(c2c[nH]c3c(C(N)=O)cc(-c4csc(CN5CCCC5)c4)cc23)CC1 [Example 232, 3-[1-(ethylsulfonyl)-4-piperidinyl]-5-[5-(1-pyrrolidinylmethyl)-3-thienyl]-1H-indole-7-carboxamide trifluoroacetate]	≤ 10 µM	≤ 1.5 µM
CCNCc1cc(-c2cc(C(N)=O)c3[nH]cc(C4CCN(S(=O)(=O)CC)CC4)c3c2)cs1 [Example 233, 5-{5-[(ethylamino)methyl]-3-thienyl}-3-[1-(ethylsulfonyl)-4-piperidinyl]-1H-indole-7-carboxamide trifluoroacetate]	≤ 10 µM	≤ 1.5 µM

Second part, the compound after the results:

IC50 [1]	IC50 [2]	SMILES
≤ 10 µM	≤ 1.5 µM	CCS(=O)(=O)N1CCC(c2c[nH]c3c(C(N)=O)cc(-c4cc(CNC)cs4)cc23)CC1 [Example 208, 3-[1-(ethylsulfonyl)-4-piperidinyl]-5-{4-[(methylamino)methyl]-2-thienyl}-1H-indole-7-carboxamide trifluoroacetate]
≤ 10 µM	≤ 1.5 µM	CCS(=O)(=O)N1CCC(c2c[nH]c3c(C(N)=O)cc(-c4cc(CN5CCCC5)cs4)cc23)CC1 [Example 209, 3-[1-(ethylsulfonyl)-4-piperidinyl]-5-[4-(1-pyrrolidinylmethyl)-2-thienyl]-1H-indole-7-carboxamide trifluoroacetate]
≤ 10 µM	≤ 1.5 µM	CCS(=O)(=O)N1CCC(c2c[nH]c3c(C(N)=O)cc(-c4cc(CNCC(C)C)cs4)cc23)CC1 [Example 210, 3-[1-(ethylsulfonyl)-4-piperidinyl]-5-(4-{[(2-methylpropyl)amino]methyl}-2-thienyl)-1H-indole-7-carboxamide trifluoroacetate]
≤ 10 µM	≤ 1.5 µM	CCS(=O)(=O)N1CCC(c2c[nH]c3c(C(N)=O)cc(-c4cc(CN(C)C)cs4)cc23)CC1 [Example 211, 5-{4-[(dimethylamino)methyl]-2-thienyl}-3-[1-(ethylsulfonyl)-4-piperidinyl]-1H-indole-7-carboxamide trifluoroacetate]
≤ 10 µM	≤ 1.5 µM	CCS(=O)(=O)N1CCC(c2c[nH]c3c(C(N)=O)cc(-c4csc([C@H](C)N5CCCC5)c4)cc23)CC1 [Example 212, 3-[1-(ethylsulfonyl)-4-piperidinyl]-5-{5-[(1S)-1-(1-pyrrolidinyl)ethyl]-3-thienyl}-1H-indole-7-carboxamide]
≤ 10 µM	≤ 1.5 µM	CCS(=O)(=O)N1CCC(c2c[nH]c3c(C(N)=O)cc(-c4csc([C@@H](C)N5CCCC5)c4)cc23)CC1 [Example 213, 3-[1-(ethylsulfonyl)-4-piperidinyl]-5-{5-[(1R)-1-(1-pyrrolidinyl)ethyl]-3-thienyl}-1H-indole-7-carboxamide]
≤ 10 µM	≤ 1.5 µM	CCS(=O)(=O)N1CCC(c2c[nH]c3c(C(N)=O)cc(-c4cc(CNCCCOC)cs4)cc23)CC1 [Example 214, 3-[1-(ethylsulfonyl)-4-piperidinyl]-5-[4-({[3-(methyloxy)propyl]amino}methyl)-2-thienyl]-1H-indole-7-carboxamide trifluoroacetate]
≤ 10 µM	≤ 1.5 µM	CCS(=O)(=O)N1CCC(c2c[nH]c3c(C(N)=O)cc(-c4cc(CN5CCC[C@H]5COC)cs4)cc23)CC1 [Example 215, 3-[1-(ethylsulfonyl)-4-piperidinyl]-5-[4-({(2S)-2-[(methyloxy)methyl]-1-pyrrolidinyl}methyl)-2-thienyl]-1H-indole-7-carboxamide trifluoroacetate]
≤ 10 µM	≤ 1.5 µM	CCS(=O)(=O)N1CCC(c2c[nH]c3c(C(N)=O)cc(-c4cc(CN5[C@H](C)CC[C@H]5C)cs4)cc23)CC1 [Example 216, 5-(4-{[(2R,5R)-2,5-dimethyl-1-pyrrolidinyl]methyl}-2-thienyl)-3-[1-(ethylsulfonyl)-4-piperidinyl]-1H-indole-7-carboxamide trifluoroacetate]
≤ 10 µM	≤ 1.5 µM	CCS(=O)(=O)N1CCC(c2c[nH]c3c(C(N)=O)cc(-c4csc(CN5CCC[C@@H]5C)c4)cc23)CC1 [Example 217, 3-[1-(ethylsulfonyl)-4-piperidinyl]-5-(5-{[(2S)-2-methyl-1-pyrrolidinyl]methyl}-3-thienyl)-1H-indole-7-carboxamide]
≤ 10 µM	≤ 1.5 µM	CCS(=O)(=O)N1CCC(c2c[nH]c3c(C(N)=O)cc(-c4csc(CN5CCC[C@H]5C)c4)cc23)CC1 [Example 218, 3-[1-(ethylsulfonyl)-4-piperidinyl]-5-(5-{[(2R)-2-methyl-1-pyrrolidinyl]methyl}-1′-3-thienyl)-1H-indole-7-carboxamide]
≤ 10 µM	≤ 1.5 µM	CCC(c1cc(-c2cc(C(N)=O)c3[nH]cc(C4CCN(S(=O)(=O)CC)CC4)c3c2)cs1)N1CCCC1 (stereo not shown) [Example 219, 3-[1-(ethylsulfonyl)-4-piperidinyl]-5-{5-[1-(1-pyrrolidinyl)propyl]-3-thienyl}-1H-indole-7-carboxamide trifluoroacetate]

Source: patent US8063071B2 (GlaxoSmithKline, LLC, priority 2007, dated 2011)
